In patent publication US20100161239A1, “QU[…]” (VICRO BVBA, priority 2003, published 2010):

Columns and labels:
HIV virus strains 1-4 = assay: Measured phenotype (pFR = -log fold resistance), censored values, genotype/phenotype dataset; assay type: cell-based; settings: pFR = -log(FR)
Protocol: (§1) For the purposes of the invention, the mutations identified should be associated with resistance or susceptibility to drug therapy, for example an antiretroviral drug. The degree to which a particular mutation pattern may affect resistance may be determined by one of skill in the art, for example, using the phenotypic resistance monitoring assay such as, the ANTIVIROGRAM® (Virco, Belgium) (see WO97/27480). In this methodology, resistance is determined with respect to a laboratory reference strain HIVLAI/IIIB. The difference in IC50 (the concentration of drug required to reduce the virus' growth in cell culture by 50%) between the patient sample and the reference viral strain is determined as a quotient. This fold change in IC50 is reported and indicative of the resistance profile of a certain drug. Based on the changes in IC50, cut-off values have been established to distinguish a sample from being sensitive or resistant to a certain drug.
The phenotypes are presented as pFR values, where pFR is equal to −log(FR), where FR denotes the Fold Resistance. Negative pFR values thus denote resistance and positive values denote hyper-susceptibility. For example, a pFR value of −1.0 is equal to 10-fold resistance.
The used dataset consists of a set of matching genotype/phenotype measurements with possible multiple phenotype measurements per genotype. The mutations are defined relative to HXB2 at amino acid level. The phenotypes are presented as pFR values, which is equal to −log(FR), where FR denotes the Fold Resistance.
In this example, the method developed by the inventors to deal with censored values was applied for the drug amprenavir. Firstly, a linear regression model without censored values was calculated, see the values ‘APV_pFR’ for iteration 0 in the Tables 18-21 below. The phenotypic measured value is <−2.083062017 for Virus strain 1, for the first iteration, the value V0 is equal to the measured phenotype value APV_pFR, but the censor is considered as ‘=’. This was followed by iteration nr. 1. Once the values were obtained from iteration 1, the inventors compared the prediction value P, e.g. for Virus strain 1, −2.362076895 with the phenotypic measured value <−2.083062017. For virus strains 1, 2 and 3 below, the measured values have a censor ‘<’. For virus strains 4, the measured value has a censor ‘>’. The scenarios established by the inventors, when the case was ‘<’-censor, and when the case was ‘>’-censor, were applied. New linear regression models were calculated and for the censored values in the linear regression model, either the data-points from the training set were removed, as for virus strains 1, 2 and for virus strain 4 (iteration 2 and 3 only), or those data-points were used instead of the censored phenotypes measurement, as illustrated for virus strain 3 and for virus strain 4 (only iteration 1). The procedure was reiterated until the prediction converged.

one HIV-1 sample = assay: Phenotypic antiviral experiment (as described in WO97/27480), fold change in IC50/EC50 relative to reference wild-type virus; assay type: cell-based; settings: fold change in IC50 or EC50 relative to reference wild-type virus
Protocol: as §1
The results were expressed in FR, or fold change in IC50 or EC50, relative to reference wild-type virus, which is the drug concentration at which 50% of the enzyme activity is inhibited, and is expressed in μM units. The FR cutoffs values for normal susceptible ranges were 8, 10, and 6, for nevirapine, delavirdine, and efavirenz, respectively.
The phenotypic antiviral experiment was taken as the gold-standard by the inventors. Said phenotypic antiviral experiment was performed as described in WO97/27480.

CC(C)CN(C[C@@H](O)[C@H](Cc1ccccc1)NC(=O)O[C@H]1CCOC1)S(=O)(=O)c1ccc(N)cc1 [APV, amprenavir]
APV_pFR (phenotypic measured value) (HIV virus strains 1-4; Virus strain 1, censor '<'): < −2.083 | APV_pFR (phenotypic measured value) (HIV virus strains 1-4; Virus strain 1, censor '<', listed as amprenavir): < −2.083 | APV_pFR (phenotypic measured value) (HIV virus strains 1-4; Virus strain 2, censor '<'): < −1.909 | APV_pFR (phenotypic measured value) (HIV virus strains 1-4; Virus strain 3, censor '<'): <−1.957 | APV_pFR (phenotypic measured value) (HIV virus strains 1-4; Virus strain 4, censor '>'): > 0.5154

Cc1ccnc2c1NC(=O)c1cccnc1N2C1CC1 [Nevirapine]
FR (phenotypic antiviral experiment) (one HIV-1 sample): >89

CC(C)Nc1cccnc1N1CCN(C(=O)c2cc3cc(NS(C)(=O)=O)ccc3[nH]2)CC1 [delavirdine]
FR (phenotypic antiviral experiment) (one HIV-1 sample): 3.7

O=C1Nc2ccc(Cl)cc2[C@@](C#CC2CC2)(C(F)(F)F)O1 [efavirenz]
FR (phenotypic antiviral experiment) (one HIV-1 sample): 17.5
